Three molecules from ChEMBL document CHEMBL1138303, “Putative bioactive conformations of amide linked cyclic myelin basic protein peptide analogues associated with experimental autoimmune encephalomyelitis” (J Med Chem, 2007) can be followed below.

The nature of data set [1]: Solubility per 100 uL of the compound. In kind it is physicochemical.
For another data set, the species on record is Rattus norvegicus. Kind of data set: Inhibition of encephalitogenic MBP(74-85)-induced encephalomyelitis in Lewis rat. In kind it is functional, organism-based.

Active and inactive are the calls of the source. The calls are words filed in the database; no cut-off is given here. Peptide text beside a SMILES is read from it.

Take `CC[C@H](C)[C@@H]1NC(=O)[C@H](CC(N)=O)NC(=O)[C@H](CCCCN)NC(=O)[C@H](Cc2ccccc2)NC(=O)[C@H](Cc2ccccc2)NC(=O)[C@H](Cc2c[nH]cn2)NC(=O)[C@H](C(C)C)NC(=O)[C@@H]2CCCN2C(=O)[C@H]([C@@H](C)O)NC(=O)[C@H](CCCNC(=N)N)NC(=O)[C@@H]2CCCN2C(=O)[C@H]([C@@H](C)O)NC(=O)[C@H](C(C)C)NC1=O`: in data set [1], the Solubility stood at 16 mg. As for `CC[C@H](C)[C@@H]1NC(=O)[C@H](CC(N)=O)NC(=O)[C@H](C)NC(=O)[C@H](Cc2ccccc2)NC(=O)[C@H](Cc2ccccc2)NC(=O)[C@H](Cc2c[nH]cn2)NC(=O)[C@H](C(C)C)NC(=O)[C@@H]2CCCN2C(=O)[C@H]([C@@H](C)O)NC(=O)[C@H](CCCNC(=N)N)NC(=O)[C@H](C)NC(=O)[C@H]([C@@H](C)O)NC(=O)[C@H](C(C)C)NC1=O` (HELM PEPTIDE1{A.N.I.V.T.A.R.T.P.V.H.F.F}$PEPTIDE1,PEPTIDE1,1:R1-13:R2$$$V2.0), in the data set filed under Rattus norvegicus, the result was Active. For the same molecule, the Solubility in data set [1] turned out to be 1.15 mg. In the same order, the values of `CC[C@H](C)[C@@H]1NC(=O)[C@H](CC(N)=O)NC(=O)[C@H](CCCNC(=N)N)NC(=O)[C@H](Cc2ccccc2)NC(=O)[C@H](Cc2ccccc2)NC(=O)[C@H](Cc2c[nH]cn2)NC(=O)[C@H](C(C)C)NC(=O)[C@@H]2CCCN2C(=O)[C@H]([C@@H](C)O)NC(=O)[C@H](CCCNC(=N)N)NC(=O)[C@H](C)NC(=O)[C@H]([C@@H](C)O)NC(=O)[C@H](C(C)C)NC1=O` (HELM PEPTIDE1{A.R.T.P.V.H.F.F.R.N.I.V.T}$PEPTIDE1,PEPTIDE1,1:R1-13:R2$$$V2.0) are “Active” and 16.25 mg.
